From patent US8846351B2, “Compositions for enhancing hydroysis of cellulosic material by cellulolytic enzyme compositions” (Novozymes, Inc., priority 2010, dated 2014)
Where two headings read alike, the source gives them in different places.

Columns and labels:
[1] = test system: Trichoderma reesei cellulase composition; assay type: biochemical; conditions: AVICEL, 1 mM organic compound
Description: Microcrystalline cellulose was used as the source of cellulosic material.
The concentration of each organic compound was 1 mM.

[2] = biological target: T. aurantiacus GH61A polypeptide (Thermoascus aurantiacus, UniProt G3XAP7, N13Y); assay: PACE analysis of products from PASC incubated with organic compound, Ca(II) and T. aurantiacus GH61A polypeptide at various pH; assay type: biochemical
Chain of T. aurantiacus GH61A polypeptide (G3XAP7 whole entry N13Y): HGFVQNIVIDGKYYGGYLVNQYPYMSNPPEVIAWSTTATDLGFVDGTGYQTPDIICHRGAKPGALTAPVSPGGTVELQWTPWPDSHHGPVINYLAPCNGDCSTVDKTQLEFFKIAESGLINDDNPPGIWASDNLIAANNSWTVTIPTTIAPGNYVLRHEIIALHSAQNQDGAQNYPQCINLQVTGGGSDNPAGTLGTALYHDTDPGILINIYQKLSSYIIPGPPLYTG
Description: Polysaccharide-analysis-using-carbohydrate-gel-electrophoresis (PACE) was applied to analyze the products from incubation of cellulose in the presence of Ca(II) and ascorbate, cysteine or gallic acid and the T. aurantiacus GH61A polypeptide.
The mixture was filtered, and the filtrate (90 μl) was subjected to PACE analysis as described below. Buffers were varied to obtain the following pH values: formic acid at pH 4, acetic acid at pH 5, triethylammonium acetate at pH 6-7, and ammonium acetate at pH 8-9.
Carbohydrate products from the reaction were derivatized with 8-aminonaphthalene-1,3,6-trisulfonic acid (ANTS) fluorophore, applied to a polyacrylamide gel, and subjected to PACE, according to protocols adapted from (Goubet et al, 2002, Analytical Biochemistry 300: 53-68). Briefly, the derivatization was conducted by first drying 45 μl of the reaction products in a Jouan RC1010 vacuum concentrator system (Jouan Inc., Vallensbaekvej, Denmark) at 40° C. for about 3 hours, then mixing the dried products with 5 μl of 0.2 M ANTS in 15% acetic acid and 5 μl of 1 M NaBH3CN in DMSO, incubation at 37° C. in a thermomixer overnight followed by exposure to air for about 30 minutes, and then drying in a vacuum concentrator at 40° C. for about 4 hours. The ANTS-labeled samples were mixed with 20 μl of 6 M urea prior to PACE analysis.
Gels were cast according to Goubet et al., 2002, supra. The electrophoresis was performed with an SE 660 vertical electrophoresis system (GE Healthcare, Park Alle, Denmark) in a Tris/Borate buffer system at 200 V for 30 minutes and then at 1000 V for almost 2 hours at +5° C., followed by visualization using a UVP BioImaging System (UVP, LLC, Upland, Calif., USA) with UV transilluminator (Wavelength 365 nm UV-A) and EpiChem Darkroom combined with a camera system using a SYBR Gold™ emission filter (Syngene, Cambridge, United Kingdom).
Densitometry was performed by visual definition of a minimal space containing the band of interest, and integration of total pixel intensity within the space using a series of MatLab® scripts (The Mathworks, Natick, Mass., USA).

[3] = cited from earlier work

| organic compound effect(no GH61) ([1]; pH 5.0, 50° C., 7 days) | organic compound effect(no GH61) ([1]; pH 5.0, 50° C., 3 days) | SMILES | also measured |
| --- | --- | --- | --- |
| greater than 1 |  | O=C(O)c1cc(O)cc(O)c1 [3,5-dihydroxybenzoic acid] |  |
| 0.735±0.00518 |  | Oc1cccc(O)c1O [pyrogallol] |  |
| approximately 1 | below 1 | COc1cc(C=CC(=O)O)ccc1O [4-hydroxy-3-methoxycinnamic acid] |  |
| below 1 | below 1 | O=C(O)C(O)C(O)C(=O)O (stereo not shown) [tartrate] |  |
|  |  | O=C(O)c1cc(O)c(O)c(O)c1 [gallic acid] | PACE band intensity as a function of pH (densitometry) ([2]; cellodextrin bands of apparent DP 4, 8 and 9): increased in intensity with increasing pH; PACE product bands at low pH ([2]; lowest pH examined, 3.9): near zero; shape of the increase of PACE band intensity with pH ([2]; pH range about 3.9 to 5.6): sharp increase in product intensity was noted between pH values of 4.5 and 5.5; pKa [3]: 4.5 |
| 0.961±0.0250 | 0.959±0.0162 | O=C(O)c1ccc(O)cc1 [4-hydroxybenzoic acid] |  |
|  |  | N[C@@H](CS)C(=O)O [cysteine] | products detected on PACE ([2]; PASC, Ca(II), GH61A polypeptide, 50° C., pH at or above the pKa of the compound): products similar to cellodextrins having 1-7 glucosyl units were detected |
| above 1 | below 1 | N[C@@H](CCC(=O)O)C(=O)O [glutamic acid] |  |
| 0.947±0.00189 | 0.989±0.0121 | COC(=O)c1cc(O)c(O)c(O)c1 [methyl-3,4,5-trihydroxybenzoate] |  |
| 0.766±0.0361 |  | Oc1ccccc1O [pyrocatechol] |  |
|  |  | COC(=O)c1ccc(O)cc1 [methyl-4-hydroxybenzoate] | organic compound effect(no GH61) ([1]; time not specified (FIG. 1: 3 and 7 days)): slightly inhibited |

| SMILES | organic compound effect(no GH61) ([1]; pH 5.0, 50° C., 7 days) | organic compound effect(no GH61) ([1]; pH 5.0, 50° C., 3 days) | also measured |
| --- | --- | --- | --- |
| O=C1OC(C(O)CO)C(=O)C1=O (stereo not shown) [dehydroascorbate] | 1.14±0.00522 | 1.05±0.0058 |  |
| O=C(O)c1ccc(O)c(O)c1 [3,4-dihydroxybenzoic acid] | 0.977±0.0208 |  |  |
